# Patent US9138457B2, “Therapeutic modulation of ocular surface lubrication” (THE REGENTS OF THE UNIVERSITY OF CALIFORNIA, priority 2008, dated 2015)
# Read-outs that look alike come from different tables or passages of the source.
# System: PRG4 mRNA
# Conditions: primary human corneal epithelial cells; for increase in PRG4 mRNA levels relative to the control levels at Day 0: 10 nM DHT
# Method: Cells were grown in keratinocyte serum free media until reaching about 80% confluence. Cells (n=3 wells/treatment/experiment) were then incubated with either vehicle or 10 nM dihydrotestosterone (DHT) for up to 5 days. At designated times cells were processed for total RNA isolation and analysis of PRG4 mRNA mRNA by RT-PCR.
# Methods. Cells were grown in keratinocyte serum free media until reaching about 80% confluence. Cells (n=3 wells/treatment/experiment) were then incubated with either vehicle or 10 nM dihydrotestosterone (DHT) for up to 5 days. At designated times cells were processed for total RNA isolation and analysis of PRG4 mRNA mRNA by RT-PCR. Results.
smiles,measurement,setting,value
"C[C@]12CCC(=O)C[C@@H]1CC[C@@H]1[C@@H]2CC[C@]2(C)[C@@H](O)CC[C@@H]12 [DHT, dihydrotestosterone]",increase in PRG4 mRNA levels relative to the control levels at Day 0,3 days of hormone exposure,10.3 fold
same,increase in PRG4 mRNA levels relative to the control levels at Day 0,4 days of hormone exposure,3.6 fold
same,increase in PRG4 mRNA levels relative to the control levels at Day 0,5 days of hormone exposure,2.8 fold
same,increase in PRG4 mRNA content relative to that of vehicle-treated controls,"another experiment, treatment of cells for 5 days with DHT",46 fold
